Measured values: US20260069588A1, “VEPDEGESTRANT FOR USE IN TREATING CANCER” (Arvinas Operation, Inc., priority 2022, published 2026)
Values joined by “and” are separate entries in the source; they are usually repeats but may differ in a detail not shown here. Equal values may be shown once. Read-outs that look alike come from different tables or passages of the source.

How the values were obtained:
[1] = target: T1, ER (Rattus norvegicus, UniProt P06211); assay: Uterine wet weight in juvenile rats (ER agonist activity); format: in vivo
T1 construct: uterine wet weight in juvenile rats; from tissue; host or cells: uterus of juvenile rats, in vivo

[2] = target: progesterone receptor (Homo sapiens, UniProt P06401); assay: Secondary pharmacodynamics binding, progesterone receptor; conditions: in vitro
[3] = target: BCRP (Homo sapiens, UniProt Q9UNQ0); assay: Efflux transporter substrate assessment (inside-out vesicular assay), BCRP; format: in vitro ADME
[4] = Single-dose oral TK and tolerability study in beagle dogs; format: in vivo; conditions: dog
Procedure: A lead-in single-dose TK and tolerability study conducted prior to the telemetry study indicated approximately dose-proportional increase in exposure between 200 and 400 mg/kg in the dog.

[5] = test system: ER+/HER2− locally advanced/metastatic breast cancer; assay: FIH Study Part B (VERITAC): clinical benefit rate, PFS; format: in vivo, human
[6] = pH effect on absorption with famotidine in fasted rats and dogs; format: in vivo; conditions: spray-dried dispersion
[7] = target: ERP (Homo sapiens, UniProt Q92731); assay: Secondary pharmacodynamics binding, ERP; conditions: in vitro
[8] = Plasma protein binding, mouse; format: in vitro ADME; conditions: read-out: free fraction
[9] = Phase 2 study of Compound A or anastrozole in early ER+/HER2− breast cancer: adverse events
Excerpt: The study will also evaluate safety, tolerability, and clinical and pathological response after approximately 5.5 months of treatment.

[10] = Plasma protein binding, monkey; format: in vitro ADME; conditions: read-out: free fraction
[11] = female, human, in vivo
Excerpt: The severity of adverse events was graded according to the National Cancer Institute Common Terminology Criteria for Adverse Events (NCI CTCAE) version 5.0.

[12] = Clinical Pharmacology Study PPI (esomeprazole) cohort: single-dose PK; format: in vivo, human; conditions: 200 mg
Excerpt: (§1) Study Design: The Clinical Pharmacology Study consists of 3 independent cohorts: 1) an open-label, randomized, 2-period, crossover Fed/Fasted cohort to determine food effects; 2) an open-label, 2-period, fixed sequence PPI cohort to evaluate interactions with esomeprazole; and 3) an open-label, randomized, 2 period, crossover rBA cohort to evaluate 2 tablet formulations.

[13] = 7-day oral dose range finding toxicity study in dogs; format: in vivo; conditions: dog, up to 120 mg/kg/day, 7 days
[14] = Clinical Pharmacology Study Fed/Fasted cohort: food effect on single-dose PK; format: in vivo, human; conditions: 200 mg single dose
Excerpt: as §1
Compound A should be taken with food.

[15] = target: GSPT1 (Homo sapiens, UniProt P15170); assay: Cereblon neomorphic substrate degradation, GSPT1; format: cell-based; conditions: in vitro
Excerpt: These drugs bind to cereblon and promote the degradation of novel (neomorphic) substrates.

[16] = Preclinical PK after PO or intravenous dose; design: species or system mouse, dog, and monkey; conditions: rat, in vivo
[17] = Plasma protein binding, human; format: in vitro ADME; conditions: read-out: free fraction
[18] = Tissue distribution in rat; format: in vivo; conditions: for Kp at 3 days: 100 mg/kg/day PO 3 days
[19] = 28-day GLP oral toxicity study in rats; conditions: both sexes, in vivo; rat, 28 days oral
Procedure: There were no mortalities and no Compound A-related clinical observations or changes in BWs or food consumption, and no FOB observations or ophthalmology findings. Minor clinical pathology changes at the 100 mg/kg/day dose level (minimally higher lymphocyte count in males, minimally lower calcium concentration in both sexes, minimally lower albumin concentration in males, and mildly lower cholesterol concentration in females) were potentially Compound A-related but were reversible and were not considered adverse.
Compound A-related microscopic findings included increased ovarian cysts in females administered ≥3 mg/kg/day and atrophy of the uterus and of the cervical and vaginal mucosal epithelium in females administered ≥10 mg/kg/day. […] Similar findings had been noted in a few animals in the 7-day study.

[20] = TEAE, Treatment Related per title, Compound A 200 mg N = 23, Anastrozole 1 mg N = 13

T1 sequence (P06211 whole entry): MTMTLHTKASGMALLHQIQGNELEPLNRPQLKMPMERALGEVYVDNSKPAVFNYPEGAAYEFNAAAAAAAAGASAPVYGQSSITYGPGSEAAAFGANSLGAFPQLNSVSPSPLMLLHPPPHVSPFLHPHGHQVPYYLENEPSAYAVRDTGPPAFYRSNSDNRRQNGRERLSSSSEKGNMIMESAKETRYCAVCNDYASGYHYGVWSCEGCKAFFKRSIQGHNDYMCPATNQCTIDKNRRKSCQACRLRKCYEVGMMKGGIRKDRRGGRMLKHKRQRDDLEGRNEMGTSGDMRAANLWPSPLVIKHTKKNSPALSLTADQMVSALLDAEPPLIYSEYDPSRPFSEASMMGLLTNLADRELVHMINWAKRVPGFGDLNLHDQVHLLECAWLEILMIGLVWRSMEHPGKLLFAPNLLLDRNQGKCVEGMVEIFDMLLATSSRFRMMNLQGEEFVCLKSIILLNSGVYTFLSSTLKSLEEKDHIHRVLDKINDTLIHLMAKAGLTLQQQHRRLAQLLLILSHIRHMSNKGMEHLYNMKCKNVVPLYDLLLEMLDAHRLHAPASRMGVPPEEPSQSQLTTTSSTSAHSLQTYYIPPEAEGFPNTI
Sequence of BCRP (Q9UNQ0 whole entry): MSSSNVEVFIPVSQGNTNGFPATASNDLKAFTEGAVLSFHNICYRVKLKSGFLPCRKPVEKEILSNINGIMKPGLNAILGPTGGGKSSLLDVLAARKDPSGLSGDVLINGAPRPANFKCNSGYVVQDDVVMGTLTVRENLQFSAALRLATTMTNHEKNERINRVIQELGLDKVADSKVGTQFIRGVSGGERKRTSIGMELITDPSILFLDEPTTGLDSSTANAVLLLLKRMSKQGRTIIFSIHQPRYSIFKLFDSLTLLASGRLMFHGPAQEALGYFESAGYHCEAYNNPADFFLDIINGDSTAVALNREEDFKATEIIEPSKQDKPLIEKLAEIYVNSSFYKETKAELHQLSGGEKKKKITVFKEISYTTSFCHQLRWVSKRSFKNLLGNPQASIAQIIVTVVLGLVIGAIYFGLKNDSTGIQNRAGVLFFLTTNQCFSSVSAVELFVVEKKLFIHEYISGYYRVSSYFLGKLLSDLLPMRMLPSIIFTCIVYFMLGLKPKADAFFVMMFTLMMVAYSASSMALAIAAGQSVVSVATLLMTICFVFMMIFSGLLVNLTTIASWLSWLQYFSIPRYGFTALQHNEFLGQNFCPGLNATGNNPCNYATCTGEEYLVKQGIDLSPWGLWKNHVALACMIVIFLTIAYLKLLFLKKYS
Sequence of progesterone receptor (P06401 whole entry, species assumed): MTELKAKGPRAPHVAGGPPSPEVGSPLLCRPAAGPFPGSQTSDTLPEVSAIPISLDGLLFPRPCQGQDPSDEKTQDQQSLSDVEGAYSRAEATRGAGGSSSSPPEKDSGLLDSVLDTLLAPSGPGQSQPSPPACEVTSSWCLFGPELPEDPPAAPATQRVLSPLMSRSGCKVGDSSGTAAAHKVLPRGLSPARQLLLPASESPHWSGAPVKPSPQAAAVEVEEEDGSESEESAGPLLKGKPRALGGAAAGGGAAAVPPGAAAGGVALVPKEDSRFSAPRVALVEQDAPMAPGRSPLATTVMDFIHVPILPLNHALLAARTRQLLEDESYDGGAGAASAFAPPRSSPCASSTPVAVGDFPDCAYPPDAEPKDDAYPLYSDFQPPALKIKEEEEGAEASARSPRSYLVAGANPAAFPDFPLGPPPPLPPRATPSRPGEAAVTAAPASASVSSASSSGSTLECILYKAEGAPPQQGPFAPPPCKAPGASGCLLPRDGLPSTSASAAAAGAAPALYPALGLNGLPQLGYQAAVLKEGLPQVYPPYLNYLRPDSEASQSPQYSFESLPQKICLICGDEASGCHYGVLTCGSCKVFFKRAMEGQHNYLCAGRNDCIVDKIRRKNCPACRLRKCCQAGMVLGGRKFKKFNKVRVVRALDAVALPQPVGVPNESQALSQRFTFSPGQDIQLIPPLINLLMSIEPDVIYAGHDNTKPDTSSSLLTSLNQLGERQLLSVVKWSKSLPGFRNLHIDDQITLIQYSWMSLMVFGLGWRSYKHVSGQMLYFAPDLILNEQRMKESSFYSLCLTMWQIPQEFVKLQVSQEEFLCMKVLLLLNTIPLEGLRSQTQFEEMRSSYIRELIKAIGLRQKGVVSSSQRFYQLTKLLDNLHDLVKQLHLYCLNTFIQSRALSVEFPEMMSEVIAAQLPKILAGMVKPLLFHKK
Sequence of GSPT1 (Q96SW2 whole entry partner, species assumed): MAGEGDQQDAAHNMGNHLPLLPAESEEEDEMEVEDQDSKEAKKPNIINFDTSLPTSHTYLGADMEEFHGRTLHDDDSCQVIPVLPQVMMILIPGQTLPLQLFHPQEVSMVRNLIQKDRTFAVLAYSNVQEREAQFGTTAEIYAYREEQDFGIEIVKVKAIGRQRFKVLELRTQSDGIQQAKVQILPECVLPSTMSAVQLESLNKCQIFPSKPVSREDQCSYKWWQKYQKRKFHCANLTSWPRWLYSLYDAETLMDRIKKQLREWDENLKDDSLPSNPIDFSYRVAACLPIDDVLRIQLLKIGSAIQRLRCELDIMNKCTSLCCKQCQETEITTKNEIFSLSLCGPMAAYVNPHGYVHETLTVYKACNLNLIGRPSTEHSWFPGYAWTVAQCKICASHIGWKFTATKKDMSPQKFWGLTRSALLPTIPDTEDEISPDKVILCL
Sequence of GSPT1 (Q16531 whole entry partner, species assumed): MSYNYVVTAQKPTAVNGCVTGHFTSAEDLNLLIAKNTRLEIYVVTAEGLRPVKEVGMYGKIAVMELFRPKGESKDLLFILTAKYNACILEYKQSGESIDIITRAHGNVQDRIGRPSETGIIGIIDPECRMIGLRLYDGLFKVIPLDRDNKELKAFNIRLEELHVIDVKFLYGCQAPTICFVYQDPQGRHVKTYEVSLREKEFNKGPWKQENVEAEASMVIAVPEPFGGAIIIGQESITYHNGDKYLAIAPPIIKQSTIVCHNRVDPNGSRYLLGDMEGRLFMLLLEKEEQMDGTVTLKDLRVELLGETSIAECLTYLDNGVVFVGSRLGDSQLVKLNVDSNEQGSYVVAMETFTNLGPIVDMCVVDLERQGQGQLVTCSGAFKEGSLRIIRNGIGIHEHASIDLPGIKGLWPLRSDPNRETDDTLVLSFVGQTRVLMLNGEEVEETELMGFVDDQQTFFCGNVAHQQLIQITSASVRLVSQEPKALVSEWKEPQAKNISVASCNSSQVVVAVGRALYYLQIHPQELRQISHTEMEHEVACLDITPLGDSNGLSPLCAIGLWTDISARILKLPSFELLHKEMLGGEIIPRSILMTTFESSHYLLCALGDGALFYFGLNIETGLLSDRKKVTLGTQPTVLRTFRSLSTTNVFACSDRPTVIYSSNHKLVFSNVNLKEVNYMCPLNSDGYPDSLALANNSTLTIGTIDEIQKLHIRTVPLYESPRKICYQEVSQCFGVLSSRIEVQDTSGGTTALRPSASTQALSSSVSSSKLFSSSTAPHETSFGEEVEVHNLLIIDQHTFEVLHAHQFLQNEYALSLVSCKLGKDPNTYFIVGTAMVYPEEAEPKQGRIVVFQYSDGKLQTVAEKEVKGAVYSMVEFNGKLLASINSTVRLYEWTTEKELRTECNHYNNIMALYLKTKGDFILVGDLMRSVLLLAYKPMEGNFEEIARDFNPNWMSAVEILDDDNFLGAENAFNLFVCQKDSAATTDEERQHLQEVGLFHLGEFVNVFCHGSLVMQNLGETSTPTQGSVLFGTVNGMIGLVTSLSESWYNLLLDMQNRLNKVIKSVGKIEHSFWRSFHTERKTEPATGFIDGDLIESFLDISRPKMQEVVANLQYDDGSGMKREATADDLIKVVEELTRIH
Sequence of GSPT1 (P15170 whole entry, species assumed): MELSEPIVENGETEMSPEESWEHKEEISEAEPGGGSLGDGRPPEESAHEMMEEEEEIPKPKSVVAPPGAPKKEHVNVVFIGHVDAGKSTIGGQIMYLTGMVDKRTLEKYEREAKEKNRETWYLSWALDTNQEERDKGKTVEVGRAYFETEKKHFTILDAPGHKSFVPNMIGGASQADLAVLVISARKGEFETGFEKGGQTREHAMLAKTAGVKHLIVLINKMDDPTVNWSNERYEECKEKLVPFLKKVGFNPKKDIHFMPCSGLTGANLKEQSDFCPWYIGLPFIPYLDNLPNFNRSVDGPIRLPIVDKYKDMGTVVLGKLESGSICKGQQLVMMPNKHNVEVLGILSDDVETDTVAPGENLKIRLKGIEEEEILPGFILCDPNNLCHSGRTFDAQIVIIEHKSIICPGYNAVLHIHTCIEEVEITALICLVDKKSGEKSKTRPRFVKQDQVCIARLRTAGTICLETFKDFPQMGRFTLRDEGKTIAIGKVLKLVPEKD
Sequence of ERP (Q92731 whole entry): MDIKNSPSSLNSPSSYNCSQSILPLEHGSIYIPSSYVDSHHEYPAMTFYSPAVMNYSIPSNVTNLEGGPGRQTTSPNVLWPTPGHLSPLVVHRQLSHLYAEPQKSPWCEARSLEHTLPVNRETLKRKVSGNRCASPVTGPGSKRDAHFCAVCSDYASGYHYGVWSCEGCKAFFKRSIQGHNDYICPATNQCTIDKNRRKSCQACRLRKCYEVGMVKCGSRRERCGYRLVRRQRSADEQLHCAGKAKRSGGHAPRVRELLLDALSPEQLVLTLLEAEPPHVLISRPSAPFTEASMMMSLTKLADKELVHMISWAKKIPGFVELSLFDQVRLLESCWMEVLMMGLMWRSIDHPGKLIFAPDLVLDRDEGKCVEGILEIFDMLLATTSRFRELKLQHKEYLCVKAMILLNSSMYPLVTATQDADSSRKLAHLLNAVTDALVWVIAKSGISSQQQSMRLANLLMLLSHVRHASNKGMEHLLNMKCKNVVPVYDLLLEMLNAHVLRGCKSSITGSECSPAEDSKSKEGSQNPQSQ

With O=C1CC[C@H](N2Cc3cc(N4CCN(CC5CCN(c6ccc([C@@H]7c8ccc(O)cc8CC[C@@H]7c7ccccc7)cc6)CC5)CC4)ccc3C2=O)C(=O)N1 [Compound A, (S)-3-(5-(4-((1-(4-((1R,2S)-6-hydroxy-2-phenyl-1,2,3,4-tetrahydronaphthalen-1-yl)phenyl)piperidin-4-yl)methyl)piperazin-1-yl)-1-oxoisoindolin-2-yl)piperidine-2,6-dione] the uterine wet weight [1] was “did not increase uterine wet weight”, the binding [2] was “bound” and the “substrate of BCRP” value [3] was “unlikely to be a substrate”. For the same compound, the Cmax ([4]; both sexes, beagle, in vivo, 400 mg/kg single oral, sexes combined) was 25000 ng/mL, the AUC ([4]; both sexes, beagle, in vivo, 400 mg/kg single oral, sexes combined, read-out: mean AUC24) was 349 µg·h/mL and the tolerability ([4]; 200 or 400 mg/kg single oral, fecal changes, emesis at 400) was “tolerated”. The median progression-free survival ([5]; 200 mg QD, all evaluable, 95% CI 1.8-7.8) was 3.5 months, the PFS ([5]; ITT (n=71)) was 3.7 months and the “pH effect on absorption with famotidine” value [6] was “lowered PK at neutral pH”. The binding [7] was “bound”, the fraction unbound at 1 μM [8] was 0.061 and the “participants on Compound A with a treatment-related AE” value ([9]; 200 mg, seven participants, 6 Jun 2023) was 19.4%. For the same compound, the Anemia [9, 20] was 0 n (%), the Arthralgia [9, 20] was 0 n (%) and the Asphyxia [9, 20] was 1 (4.3) n (%). The Asthenia [9, 20] was 2 (8.7) n (%), the “Blood and lymphatic system disorders” value [9, 20] was 1 (4.3) n (%) and the “Blood uric acid increased” value [9, 20] was 1 (4.3) n (%). For the same compound, the Breast pain [9, 20] was 1 (4.3) n (%), the Cardiac disorders [9, 20] was 1 (4.3) n (%) and the Constipation [9, 20] was 2 (8.7) n (%). For the same compound, the Diarrhea [9, 20] was 1 (4.3) n (%), the Dyspepsia [9, 20] was 0 n (%) and the Fatigue [9, 20] was 1 (4.3) n (%). For the same compound, the Gastrointestinal disorders [9, 20] was 4 (17.4) n (%), the “General disorders and administration site conditions” value [9, 20] was 4 (17.4) n (%) and the Hematocrit decreased [9, 20] was 0 n (%). For the same compound, the Heparin-induced thrombocytopenia [9, 20] was 1 (4.3) n (%), the Hepatobiliary disorders [9, 20] was 3 (13.0) n (%) and the Hot flush [9, 20] was 3 (13.0) n (%). For the same compound, the Hyperbilirubinemia [9, 20] was 2 (8.7) n (%), the Hypercalcemia [9, 20] was 1 (4.3) n (%) and the Hyperglycemia [9, 20] was 2 (8.7) n (%). The Hypernatremia [9, 20] was 1 (4.3) n (%), the Hypertransaminasemia [9, 20] was 1 (4.3) n (%) and the Hypokalemia [9, 20] was 1 (4.3) n (%). For the same compound, the Hyponatremia [9, 20] was 1 (4.3) n (%), the “Injury, poisoning and procedural complications” value [9, 20] was 1 (4.3) n (%) and the Insomnia [9, 20] was 1 (4.3) n (%). For the same compound, the Investigations [9, 20] was 1 (4.3) n (%), the Lymphopenia [9, 20] was 0 n (%) and the “Metabolism and nutrition disorders” value [9, 20] was 2 (8.7) n (%). The “Musculoskeletal and connective tissue disorders” value [9, 20] was 0 n (%), the Myalgia [9, 20] was 0 n (%) and the Nervous system disorders [9, 20] was 2 (8.7) n (%). The Odynophagia [9, 20] was 1 (4.3) n (%), the Procedural pain [9, 20] was 1 (4.3) n (%) and the Pruritus [9, 20] was 1 (4.3) n (%). For the same compound, the Psychiatric disorders [9, 20] was 2 (8.7) n (%), the Pyrexia [9, 20] was 1 (4.3) n (%) and the “Reproductive system and breast disorders” value [9, 20] was 1 (4.3) n (%). The “Respiratory, thoracic and mediastinal disorders” value [9, 20] was 1 (4.3) n (%), the Sinus bradycardia [9, 20] was 1 (4.3) n (%) and the “Skin and subcutaneous tissue disorders” value [9, 20] was 1 (4.3) n (%). For the same compound, the Somnolence [9, 20] was 2 (8.7) n (%), the Stomatitis [9, 20] was 1 (4.3) n (%) and the Tension [9, 20] was 1 (4.3) n (%). The Vascular disorders [9, 20] was 3 (13.0) n (%), the “With Any Adverse Event” value [9, 20] was 11 (47.8) n (%) and the fraction unbound at 1 μM [10] was 0.04. For the same compound, the “TEAE COVID-19” value [11] was 11.8%, the “AUC with PPI vs without PPI” value [12] was “similar” and the “decrease of median Cmax by PPI” value [12] was “about 18%”. For the same compound, the “decrease of AUCinf by multiple doses of esomeprazole 40 mg” value ([12]; moderate-fat meal) was 11%, the “decrease of Cmax by multiple doses of esomeprazole 40 mg” value ([12]; moderate-fat meal) was 17.1% and the tolerability [13] was “well tolerated”. For the same compound, the “increase of AUCinf by high-fat meal” value [14] was 125%, the “increase of AUCinf by high-fat meal vs fasted” value [14] was 2.2 fold and 2 fold and the “increase of Cmax by high-fat meal” value [14] was 184%. The “increase of Cmax by high-fat meal vs fasted” value [14] was 2.8 fold and 3 fold, the “degradation of GSPT1” value [15] was “did not degrade” and the bioavailability ([16]; mouse, dog, monkey, po, range across species) was 27 to 65%. It also gave a half-life ([16]; mouse, dog, monkey, range across species) of 126 to 492 min, a Vd ([16]; intravenous, read-out: VSS) of 6 L/kg and a fraction unbound at 1 μM [17] of 0.124. The “tissue accumulation upon repeat-dose” value [18] was “no signs of tissue accumulation”, the Kp at 3 days ([18]; brain, read-out: tissue plasma ratio, brain) was no more than 0.1 and the “blood brain barrier crossing” value ([18]; in vivo) was “does not readily cross the blood brain barrier”. The Kp at 3 days ([18]; lung, read-out: tissue plasma ratio, lung) was 5.6 to 13.9 and the NOAEL at 28 days [19] was 100 mg/kg/day.
